Results as given in patent publication US20060264371A1, “Treatment” (Proximagen Ltd., priority 2005, published 2006).
Entries after “also recorded” stand apart in the source; their conditions may differ.

Experiments:
Format in all cases: cell-based, rat
[1] = test system: TH positive cells in primary ventral mesencephalic cell cultures; assay: MPP+ dose response on TH positive cell number in primary ventral mesencephalic cell cultures; details: 24 hrs exposure, 0.1-10 μM MPP+, n=3; read-out: EC50, TH positive (dopaminergic) cell death
Description: (§1) Primary ventral mesencephalic cell cultures: Primary cell cultures were prepared by dissecting out the ventral mesencephalon from E14 rat foetuses. The dissected tissue was pooled and incubated with 0.1% Trypsin solution. This solution was then removed and replaced with Dulbecco's modified Eagles medium (DMEM) containing 10% foetal bovine serum (FBS) and 0.25% penicillin-streptomycin-neomycin (PSN), and the tissue centrifuged for 1 minute at 2000 rpm at room temperature. The supernatant was then removed, fresh medium was added and the tissue mechanically dissociated using increasing fine bore fire-polished Pasteur pipettes. Cell density was assessed using a haematocytometer and cells were plated in culture medium containing 10% FBS and 0.25% PSN at a density of 1-1.5×10^5 on sterile coverslips coated with 0.01% poly-D-lysine. After 4 days the culture medium was removed and replaced with fresh serum free DMEM prior to treatment with MPP+ or OPN. […]
MPP+ dose response: MPP+ was dissolved in sterile PBS and the primary cell cultures were incubated for 24 hrs with one of the following concentrations of MPP+ : 0.1, 0.5, 1, 2, 5, 10 μM MPP+ or vehicle (PBS). […] An EC50 was calculated (3.076±0.56) and a high (10 μM) or low (2 μM) MPP+ concentration was used to investigate the role of OPN in dopaminergic cell survival. […]

[2] = test system: TH positive cells in primary ventral mesencephalic cultures; assay: Survival of TH positive cells in primary ventral mesencephalic cultures with MPP+ treatment; details: for concentration of maximal efficacy in increasing TH positive cell survival: lowest concentration used; for effect on survival/death of TH positive cells: 24 hrs pretreatment
Description: Primary ventral mesencephalic cell cultures: Primary cell cultures were prepared by dissecting out the ventral mesencephalon from E14 rat foetuses. The dissected tissue was pooled and incubated with 0.1% Trypsin solution. This solution was then removed and replaced with Dulbecco's modified Eagles medium (DMEM) containing 10% foetal bovine serum (FBS) and 0.25% penicillin-streptomycin-neomycin (PSN), and the tissue centrifuged for 1 minute at 2000 rpm at room temperature. The supernatant was then removed, fresh medium was added and the tissue mechanically dissociated using increasing fine bore fire-polished Pasteur pipettes. Cell density was assessed using a haematocytometer and cells were plated in culture medium containing 10% FBS and 0.25% PSN at a density of 1-1.5×10^5 on sterile coverslips coated with 0.01% poly-D-lysine. After 4 days the culture medium was removed and replaced with fresh serum free DMEM prior to treatment with MPP+ or OPN. Each treatment was done in triplicate per experiment and each series of experiments was repeated a further 2 times to give a final n=3.
Manipulation of the OPN system: Cultures were incubated with one of the following treatments for 24 hrs prior to MPP+ administration (either 10 μM or 2 μM MPP+): OPN protein (1, 5, 10, 25, 50 & 100 ng/ml), anti-OPN antibody (26.5, 53, 265, 530 ng/ml and 1.325, 2.65 μg/ml), anti-αv or anti-β3 integrin receptor subunit antibody (0.02, 0.04, 0.2, 0.4, 1 & 2 μg/ml). Control groups received no MPP+ treatment.
(§2) Tyrosine hydroxylase (TH) immunohistochemistry: The culture medium was removed from the cells and the coverslips were fixed in 4% paraformaldehyde prior to peroxidase detection of TH using the ABC immunohistochemical method. Coverslips were mounted and examined using a Zeiss Axiophot microscope at a 50× magnification and the number of TH positive cells on each coverslip was manually counted in four fields chosen at random (total area: 8 mm^2).

[3] = test system: TH positive cells in primary ventral mesencephalic cultures; assay: Survival of TH positive cells in primary ventral mesencephalic cultures without MPP+ treatment; details: 24 hrs incubation, no toxin; listed as OPN
Description: as §1, §2

Compound | EC50 [1] [µM] | concentration of maximal efficacy in increasing TH positive cell survival ([2]; 2 μM MPP+) [ng/mL] | concentration of maximal efficacy in increasing TH positive cell survival ([2]; 10 μM MPP+) [ng/mL] | effect on survival/death of TH positive cells ([2]; then 2 μM MPP+ for 24 hrs) | effect on survival/death of TH positive cells ([2]; then 2 μM MPP+ for 24 hrs, listed as OPN) | effect on survival/death of TH positive cells ([2]; then 10 μM MPP+ for 24 hrs) | effect on survival/death of TH positive cells ([2]; then 10 μM MPP+ for 24 hrs, listed as OPN) | effect on viability of TH positive cells [3]
C[n+]1ccc(-c2ccccc2)cc1 [MPP+] | 3.08 ± 0.56 | – | – | – | – | – | – | –
OPN protein fragment: 15 amino acid fragment of rat osteopontin (SEQ ID NO: 8) containing the RGD αvβ3 integrin binding site (TVDVPDGRGDSLAYG; listed as Rattus norvegicus) | – | 1 | 1 | almost completely protected dopaminergic cells | increased TH cell survival | almost completely protected dopaminergic cells | increased survival of TH positive cells | not found to affect the viability; also recorded: no effect
